From US20170296540A1, “METHODS OF TREATING FRIEDREICH'S ATAXIA USING SRC INHIBITORS” (Fratagene Therapeutics S.R.L., priority 2014, published 2017)
Entries after “also recorded” stand apart in the source; their conditions may differ. Where two headings read alike, the source gives them in different places.

Key:
[1] = tested on: HEK293^FXN cells stably expressing a single copy of wild-type frataxin; assay: Frataxin precursor accumulation with Src inhibitor, ubiquitin competing molecule or combination in HEK293^FXN cells; details: F166 1 uM; 24 h
Description: Data are representative of four independent experiments. […] The frataxin expression was normalized with tubulin, and frataxin expression in non-treated cells (−) was set to 1. Data represent the mean±1 S.E.M. from four independent experiments.
The frataxin precursor (FXN) and tubulin expression (TUB) were analyzed by western blot (FIG. 7A). The data shown are representative of four independent experiments.
The amount of frataxin accumulation was quantified by densitometry (FIG. 7B). Frataxin expression was normalized with tubulin, and frataxin expression in non-treated cells (−) was set to 1. The data shown represent the mean±1 S.E.M. from four independent experiments.

[2] = tested on: endogenous frataxin in HEK293 cells; assay: Endogenous frataxin accumulation in HEK293 cells (western blot, densitometry); type: cell-based, human; details: 1, 3 and 10 μM, 24 h
Description: Human HEK293 cells were treated with 1, 3 and 10 μM of SU6656, PP2, and dasatinib Src inhibitor or vehicle (−) for 24 h. Frataxin (FXN) and tubulin expression (TUB) was analyzed by western blot. Data are representative of three independent experiments. […] Right panels: densitometric quantification of frataxin accumulation. Frataxin expression was normalized with tubulin and frataxin expression in non-treated cells (NT) set to one. Data represent the mean±1 S.E.M. from three different independent experiments performed for each inhibitor in the left panels.
Human embryonic kidney HEK-293 cells were cultured in Dulbecco's modified Eagle's medium (DMEM) supplemented with 10% fetal bovine serum (FBS). […]
Cell lysates (100 μg) were resolved by SDS-PAGE and analyzed by immunoblot with specific mAb anti-frataxin clone 1G2 and STR-23 (Immunological Sciences, Rome, Italy) mAb anti-tubulin (Sigma), mAb anti-actin (Sigma), mAb anti-phosphotyrosine (Millipore), pAb anti-phospho-Src (Life Technologies), mAb anti-GFP (Takara), secondary antibody horseradish peroxidase-conjugated goat anti-mouse (Pierce), secondary antibody horseradish peroxidase-conjugated mouse anti-rabbit (Pierce), secondary antibody horseradish peroxidase-conjugated goat anti-Fc anti-mouse (Thermo Scientific) using ECL system detection (GE Healthcare Europe GmbH, Milan, Italy). […]

[3] = tested on: HEK293^FXN cells stably expressing single copy of wild type frataxin; assay: Frataxin accumulation (western blot, densitometry) in HEK293^FXN cells expressing wild type frataxin; type: cell-based, human; details: 1, 3 and 10 μM, 24 h
Description: (§1) FIG. 4. […] HEK293^FXN cells stably expressing single copy of wild type frataxin (WT) or non-phosphorylable Y118F frataxin mutant (Y118F) were treated for 24 h with 1, 3, and 10 μM of either Src inhibitor SU6656, PP2, dasatinib, bosutinib, saracatinib, or vehicle (−). […] Data are representative of three independent experiments. The precursor (P), intermediate (I) and mature (M) frataxin forms are indicated. Right panels: Densitometric quantification of frataxin accumulation for the corresponding inhibitor.
(§2) HEK-293 Flp-In cells (Life Technologies) are HEK-293 variants allowing the stable and isogenic integration and expression of a transfected gene. The HEK-293 clone stably expressing frataxin^1-210 (Condo et al. 2007) and the clone stably expressing frataxin^V118F were generated by mutagenesis as described below. HEK-293 Flp-In cells were maintained in DMEM supplemented with 10% FBS.
(§3) Densitometric analyses were performed using ImageLab software (Biorad).
(§4) Because phosphorylation on Y118 promotes ubiquitination and that preventing ubiquitin-dependent degradation increases frataxin levels (Rufini et al. 2011), the effects of frataxin phosphorylation by Src kinase were tested for enhancement of frataxin expression.

[4] = tested on: HEK293^FXN cells stably expressing non-phosphorylable Y118F frataxin mutant; assay: Frataxin accumulation (western blot, densitometry) in HEK293^FXN cells expressing Y118F frataxin mutant; type: cell-based, human; details: 1, 3 and 10 μM, 24 h
Description: as §1, §2, §3, §4

[5] = tested on: FRDA patient-derived B cells (GM16214)
Description: (§5) Left panels: mature frataxin (FXN) and tubulin expression (TUB) was analyzed by western blot. Data are representative of three independent experiments. Right panels: densitometric quantification of frataxin accumulation. Frataxin expression was normalized with tubulin and frataxin expression in non-treated cells (NT) set to one. Data represent the mean±1 S.E.M. from three different independent experiments performed for each inhibitor in the left panels.
(§6) Total cell extracts were prepared in ice-cold modified RIPA buffer (10 mM sodium phosphate pH 7.2, 150 mM NaCl, 1% Na deoxycholate, 0.1% SDS, 1% Nonidet P-40, 2 mM EDTA) or IP buffer (50 mM Tris-HCl, pH 7.5, 150 mM NaCl, 1% Nonidet P-40, 5 mM EDTA, 5 mM EGTA) supplemented with complete protease inhibitor cocktail (Roche Diagnostics, Milan, Italy), sodium orthovanadate 1 mM and NaF 25 mM to inhibit phosphatases.
(§7) Cell lysates (100 μg) were resolved by SDS-PAGE and analyzed by immunoblot with specific mAb anti-frataxin clone 1G2 and STR-23 (Immunological Sciences, Rome, Italy) mAb anti-tubulin (Sigma), mAb anti-actin (Sigma), mAb anti-phosphotyrosine (Millipore), pAb anti-phospho-Src (Life Technologies), mAb anti-GFP (Takara), secondary antibody horseradish peroxidase-conjugated goat anti-mouse (Pierce), secondary antibody horseradish peroxidase-conjugated mouse anti-rabbit (Pierce), secondary antibody horseradish peroxidase-conjugated goat anti-Fc anti-mouse (Thermo Scientific) using ECL system detection (GE Healthcare Europe GmbH, Milan, Italy).
(§8) For treatment longer than 24 h, inhibitors were added every 2 days, and each time lymphoblasts were centrifuged and resuspended at 400.000 cells/ml with the indicated concentration of inhibitor.
(§9) FRDA lymphoblasts were exposed to these inhibitors for different time periods.

[6] = tested on: FRDA patient-derived B cells (GM16214); assay: Frataxin accumulation in frataxin-deficient FRDA patient-derived B cells (western blot, densitometry); details: for frataxin accumulation in frataxin-deficient cells (mature frataxin): FRDA patient-derived B cells, 10 μM, time course 24 h to 72 h
Description: as §5, §6, §7, §8, §9

nude mice = details: mouse, in vivo, po; cited from earlier work

| Compound | frataxin precursor accumulation, single agent [1] | endogenous frataxin accumulation [2] | frataxin accumulation (frataxin normalized with tubulin, non-treated cells set to one) [3] | frataxin accumulation (frataxin normalized with tubulin, non-treated cells set to one) [4] | tolerability in cells [5] | frataxin accumulation in frataxin-deficient cells (mature frataxin) [6] | toxicity of regimen (nude mice) | tolerability in cells ([6]; FRDA patient-derived B cells (GM16214)) |
| --- | --- | --- | --- | --- | --- | --- | --- | --- |
| COc1ccccc1C(=O)N/N=C(\C)c1ccc2c(c1)Nc1ccccc1S2 [F166] | accumulate frataxin precursor |  |  |  |  |  |  |  |
| CC(C)(C)n1nc(-c2ccc(Cl)cc2)c2c(N)ncnc21 [PP2] |  | promote endogenous frataxin accumulation | upregulate wild type frataxin | not the non-phosphorylable Y118F frataxin mutant | best tolerated | promote frataxin accumulation |  |  |
| CN(C)S(=O)(=O)c1ccc2c(c1)/C(=C/c1cc3c([nH]1)CCCC3)C(=O)N2 [SU6656] |  | promote endogenous frataxin accumulation | upregulate wild type frataxin | not the non-phosphorylable Y118F frataxin mutant | best tolerated | further accumulated within 72 h; also recorded: promote frataxin accumulation |  |  |
| Cc1nc(Nc2ncc(C(=O)Nc3c(C)cccc3Cl)s2)cc(N2CCN(CCO)CC2)n1 [dasatinib] |  |  |  |  |  |  | no toxicity | best tolerated |
